Reference: the OligoGym collection
Oligonucleotides are written 5' to 3', each unit as a sugar letter and its base; * is a phosphorothioate linkage, no mark a phosphodiester; rarer units and linkages stand in square brackets, end groups in braces. Plain capitals give the bases only. d = 2'-deoxy (DNA); r = 2'-OH (RNA)

molecular target: UBE2M; assay: reporter assay of Huesken 2005; settings: siRNA
Note: test concentration or dose not given here.

Going from “sense rArArCrGrUrGrCrArGrCrGrCrUrCrCrArUrGrCdTdT / antisense rGrCrArUrGrGrArGrCrGrCrUrGrCrArCrGrUrUdCdT” to “sense rArArCrUrCrCrArUrArArUrUrUrArUrGrGrCrCdTdT / antisense rGrGrCrCrArUrArArArUrUrArUrGrGrArGrUrUdTdA”, the normalised inhibition (eCFP-eYFP dual reporter) falls from 61.2% to 49.7%.

Going from “sense rArArGrArGrUrGrGrGrArArGrUrUrUrGrUrGrUdTdT / antisense rArCrArCrArArArCrUrUrCrCrCrArCrUrCrUrUdGdT” to “sense rArCrGrArGrCrUrGrArArCrCrUrGrCrCrCrArAdTdT / antisense rUrUrGrGrGrCrArGrGrUrUrCrArGrCrUrCrGrUdTdT”, the normalised inhibition (eCFP-eYFP dual reporter) falls from 85.1% to 66%.

molecular target: UBE2C; assay: reporter assay of Huesken 2005; settings: siRNA

Compared with “sense rCrArGrArGrCrCrUrUrCrUrArGrGrArGrArArCdTdT / antisense rGrUrUrCrUrCrCrUrArGrArArGrGrCrUrCrUrGdGdA”, “sense rCrArGrGrArCrCrArUrUrCrUrGrCrUrCrUrCrCdTdT / antisense rGrGrArGrArGrCrArGrArArUrGrGrUrCrCrUrGdAdC” is lower in normalised inhibition (eCFP-eYFP dual reporter): 75.5% for the first, 45.4% for the second.

Going from “sense rCrArGrUrArUrArUrGrArArGrArCrCrUrGrArGdTdT / antisense rCrUrCrArGrGrUrCrUrUrCrArUrArUrArCrUrGdTdT” to “sense rCrArUrCrCrArGrArGrCrCrUrUrCrUrArGrGrAdTdT / antisense rUrCrCrUrArGrArArGrGrCrUrCrUrGrGrArUrGdGdA”, the normalised inhibition (eCFP-eYFP dual reporter) falls from 82.2% to 78.6%.

First: sense rCrArUrGrCrUrGrCrCrGrArGrCrUrCrUrGrGrAdTdT / antisense rUrCrCrArGrArGrCrUrCrGrGrCrArGrCrArUrGdTdG
Second: sense rCrArUrUrCrUrGrCrUrCrUrCrCrArUrCrCrArGdTdT / antisense rCrUrGrGrArUrGrGrArGrArGrCrArGrArArUrGdGdT
The normalised inhibition (eCFP-eYFP dual reporter) of the first is higher: 90.5% for the first, 79.7% for the second.

First: sense rCrCrArCrArGrUrGrArArGrUrUrCrCrUrCrArCdTdT / antisense rGrUrGrArGrGrArArCrUrUrCrArCrUrGrUrGrGdGdC
Second: sense rCrCrArUrCrCrArUrGrGrArGrCrArGrCrUrGrGdTdT / antisense rCrCrArGrCrUrGrCrUrCrCrArUrGrGrArUrGrGdTdC
The normalised inhibition (eCFP-eYFP dual reporter) of the first is lower: 74.3% for the first, 80.7% for the second.

Going from “sense rCrCrCrArGrUrGrGrCrUrArCrCrCrUrUrArCrAdTdT / antisense rUrGrUrArArGrGrGrUrArGrCrCrArCrUrGrGrGdGdA” to “sense rCrCrCrCrArGrUrGrGrCrUrArCrCrCrUrUrArCdTdT / antisense rGrUrArArGrGrGrUrArGrCrCrArCrUrGrGrGrGdAdA”, the normalised inhibition (eCFP-eYFP dual reporter) falls from 85.7% to 67.7%.

Compared with “sense rCrCrCrUrGrCrUrArUrCrArCrCrCrCrArArCrGdTdT / antisense rCrGrUrUrGrGrGrGrUrGrArUrArGrCrArGrGrGdCdG”, “sense rCrCrUrGrGrArCrArUrCrCrUrGrArArGrGrArAdTdT / antisense rUrUrCrCrUrUrCrArGrGrArUrGrUrCrCrArGrGdCdA” is higher in normalised inhibition (eCFP-eYFP dual reporter): 53.1% for the first, 74.2% for the second.

Going from “sense rCrCrUrGrUrArUrGrArUrGrUrCrArGrGrArCrCdTdT / antisense rGrGrUrCrCrUrGrArCrArUrCrArUrArCrArGrGdGdC” to “sense rCrGrCrUrArGrArGrUrUrCrCrCrCrArGrUrGrGdTdT / antisense rCrCrArCrUrGrGrGrGrArArCrUrCrUrArGrCrGdAdG”, the normalised inhibition (eCFP-eYFP dual reporter) rises from 42% to 86.9%.

Compared with “sense rCrUrArUrCrArCrCrCrCrArArCrGrUrGrGrArCdTdT / antisense rGrUrCrCrArCrGrUrUrGrGrGrGrUrGrArUrArGdCdA”, “sense rCrUrCrCrArUrCrCrArGrArGrCrCrUrUrCrUrAdTdT / antisense rUrArGrArArGrGrCrUrCrUrGrGrArUrGrGrArGdAdG” is higher in normalised inhibition (eCFP-eYFP dual reporter): 77.2% for the first, 81.9% for the second.

Compared with “sense rCrUrGrArGrGrUrArUrArArGrCrUrCrUrCrGrCdTdT / antisense rGrCrGrArGrArGrCrUrUrArUrArCrCrUrCrArGdGdT”, “sense rCrUrUrCrUrArGrGrArGrArArCrCrCrArArCrAdTdT / antisense rUrGrUrUrGrGrGrUrUrCrUrCrCrUrArGrArArGdGdC” is higher in normalised inhibition (eCFP-eYFP dual reporter): 75.8% for the first, 86.1% for the second.

Going from “sense rGrArArCrArCrArCrArUrGrCrUrGrCrCrGrArGdTdT / antisense rCrUrCrGrGrCrArGrCrArUrGrUrGrUrGrUrUrCdAdA” to “sense rGrArArCrArGrUrArUrArUrGrArArGrArCrCrUdTdT / antisense rArGrGrUrCrUrUrCrArUrArUrArCrUrGrUrUrCdCdA”, the normalised inhibition (eCFP-eYFP dual reporter) falls from 89.6% to 86.9%.

Compared with “sense rGrArArGrGrArArArArGrUrGrGrUrCrUrGrCrCdTdT / antisense rGrGrCrArGrArCrCrArCrUrUrUrUrCrCrUrUrCdAdG”, “sense rGrArArGrUrUrCrCrUrCrArCrGrCrCrCrUrGrCdTdT / antisense rGrCrArGrGrGrCrGrUrGrArGrGrArArCrUrUrCdAdC” is lower in normalised inhibition (eCFP-eYFP dual reporter): 63.3% for the first, 40.9% for the second.

First: sense rGrArGrArArCrCrCrArArCrArUrUrGrArUrArGdTdT / antisense rCrUrArUrCrArArUrGrUrUrGrGrGrUrUrCrUrCdCdT
Second: sense rGrArGrCrArGrCrUrGrGrArArCrArGrUrArUrAdTdT / antisense rUrArUrArCrUrGrUrUrCrCrArGrCrUrGrCrUrCdCdA
The normalised inhibition (eCFP-eYFP dual reporter) of the first is lower: 66.3% for the first, 85.2% for the second.

First: sense rGrArUrGrUrCrArGrGrArCrCrArUrUrCrUrGrCdTdT / antisense rGrCrArGrArArUrGrGrUrCrCrUrGrArCrArUrCdAdT
Second: sense rGrCrCrCrArCrArGrUrGrArArGrUrUrCrCrUrCdTdT / antisense rGrArGrGrArArCrUrUrCrArCrUrGrUrGrGrGrCdGdC
The normalised inhibition (eCFP-eYFP dual reporter) of the first is higher: 48.8% for the first, 46.7% for the second.

First: sense rGrCrCrCrUrGrCrUrArUrCrArCrCrCrCrArArCdTdT / antisense rGrUrUrGrGrGrGrUrGrArUrArGrCrArGrGrGrCdGdT
Second: sense rGrCrCrUrGrGrArCrArUrCrCrUrGrArArGrGrAdTdT / antisense rUrCrCrUrUrCrArGrGrArUrGrUrCrCrArGrGrCdAdT
The normalised inhibition (eCFP-eYFP dual reporter) of the first is lower: 63.4% for the first, 85.8% for the second.

First: sense rGrCrCrUrUrCrUrArGrGrArGrArArCrCrCrArAdTdT / antisense rUrUrGrGrGrUrUrCrUrCrCrUrArGrArArGrGrCdTdC
Second: sense rGrCrGrCrCrCrArCrArGrUrGrArArGrUrUrCrCdTdT / antisense rGrGrArArCrUrUrCrArCrUrGrUrGrGrGrCrGrCdAdT
The normalised inhibition (eCFP-eYFP dual reporter) of the first is higher: 92.8% for the first, 70.9% for the second.

First: sense rGrCrUrArGrArGrUrUrCrCrCrCrArGrUrGrGrCdTdT / antisense rGrCrCrArCrUrGrGrGrGrArArCrUrCrUrArGrCdGdA
Second: sense rGrCrUrArUrCrArCrCrCrCrArArCrGrUrGrGrAdTdT / antisense rUrCrCrArCrGrUrUrGrGrGrGrUrGrArUrArGrCdAdG
The normalised inhibition (eCFP-eYFP dual reporter) of the first is lower: 69% for the first, 89.4% for the second.

Going from “sense rGrCrUrGrGrArArCrArGrUrArUrArUrGrArArGdTdT / antisense rCrUrUrCrArUrArUrArCrUrGrUrUrCrCrArGrCdTdG” to “sense rGrGrUrArUrArArGrCrUrCrUrCrGrCrUrArGrAdTdT / antisense rUrCrUrArGrCrGrArGrArGrCrUrUrArUrArCrCdTdC”, the normalised inhibition (eCFP-eYFP dual reporter) rises from 90.4% to 91.3%.

Compared with “sense rGrGrUrCrUrGrCrCrCrUrGrUrArUrGrArUrGrUdTdT / antisense rArCrArUrCrArUrArCrArGrGrGrCrArGrArCrCdAdC”, “sense rGrUrGrGrCrUrArCrCrCrUrUrArCrArArUrGrCdTdT / antisense rGrCrArUrUrGrUrArArGrGrGrUrArGrCrCrArCdTdG” is higher in normalised inhibition (eCFP-eYFP dual reporter): 55.5% for the first, 87.8% for the second.

Going from “sense rUrArArGrCrUrCrUrCrGrCrUrArGrArGrUrUrCdTdT / antisense rGrArArCrUrCrUrArGrCrGrArGrArGrCrUrUrAdTdA” to “sense rUrArGrArGrUrUrCrCrCrCrArGrUrGrGrCrUrAdTdT / antisense rUrArGrCrCrArCrUrGrGrGrGrArArCrUrCrUrAdGdC”, the normalised inhibition (eCFP-eYFP dual reporter) rises from 60.2% to 67.2%.

Compared with “sense rUrArGrUrCrCrCrUrUrGrArArCrArCrArCrArUdTdT / antisense rArUrGrUrGrUrGrUrUrCrArArGrGrGrArCrUrAdTdC”, “sense rUrArUrGrArUrGrUrCrArGrGrArCrCrArUrUrCdTdT / antisense rGrArArUrGrGrUrCrCrUrGrArCrArUrCrArUrAdCdA” is lower in normalised inhibition (eCFP-eYFP dual reporter): 76.1% for the first, 32.1% for the second.

First: sense rUrCrCrUrGrArArGrGrArArArArGrUrGrGrUrCdTdT / antisense rGrArCrCrArCrUrUrUrUrCrCrUrUrCrArGrGrAdTdG
Second: sense rUrCrUrArGrGrArGrArArCrCrCrArArCrArUrUdTdT / antisense rArArUrGrUrUrGrGrGrUrUrCrUrCrCrUrArGrAdAdG
The normalised inhibition (eCFP-eYFP dual reporter) of the first is lower: 71.8% for the first, 88.8% for the second.

First: sense rUrGrArArCrArCrArCrArUrGrCrUrGrCrCrGrAdTdT / antisense rUrCrGrGrCrArGrCrArUrGrUrGrUrGrUrUrCrAdAdG
Second: sense rUrGrArGrGrUrArUrArArGrCrUrCrUrCrGrCrUdTdT / antisense rArGrCrGrArGrArGrCrUrUrArUrArCrCrUrCrAdGdG
The normalised inhibition (eCFP-eYFP dual reporter) of the first is higher: 86.5% for the first, 80.6% for the second.

Compared with “sense rUrGrCrCrCrUrGrUrArUrGrArUrGrUrCrArGrGdTdT / antisense rCrCrUrGrArCrArUrCrArUrArCrArGrGrGrCrAdGdA”, “sense rUrGrCrCrUrGrGrArCrArUrCrCrUrGrArArGrGdTdT / antisense rCrCrUrUrCrArGrGrArUrGrUrCrCrArGrGrCrAdTdA” is lower in normalised inhibition (eCFP-eYFP dual reporter): 50.8% for the first, 49.2% for the second.

First: sense rUrGrGrCrUrArCrCrCrUrUrArCrArArUrGrCrGdTdT / antisense rCrGrCrArUrUrGrUrArArGrGrGrUrArGrCrCrAdCdT
Second: sense rUrGrGrUrCrUrGrCrCrCrUrGrUrArUrGrArUrGdTdT / antisense rCrArUrCrArUrArCrArGrGrGrCrArGrArCrCrAdCdT
The normalised inhibition (eCFP-eYFP dual reporter) of the first is higher: 61.3% for the first, 28.6% for the second.
